Assay results: paper PMC9374744, “Structural basis for receptor selectivity and inverse agonism in S1P5 receptors” (Nature Communications, 2022)
Where “and” joins values, the source holds several entries; their conditions need not be identical. Equal entries are not always repeated.

What was measured:
human S1P5 M296W mutant = human S1P5 M296W mutant (Homo sapiens, UniProt Q9H228, M296W); assay: BRET-based cAMP Gi signaling assay, S1P5 M296W; settings: for BRET ratio, single replicate readings (Supplementary Figure 6h): listed as ONO
Sequence of human S1P5 M296W mutant (Q9H228 whole entry M296W): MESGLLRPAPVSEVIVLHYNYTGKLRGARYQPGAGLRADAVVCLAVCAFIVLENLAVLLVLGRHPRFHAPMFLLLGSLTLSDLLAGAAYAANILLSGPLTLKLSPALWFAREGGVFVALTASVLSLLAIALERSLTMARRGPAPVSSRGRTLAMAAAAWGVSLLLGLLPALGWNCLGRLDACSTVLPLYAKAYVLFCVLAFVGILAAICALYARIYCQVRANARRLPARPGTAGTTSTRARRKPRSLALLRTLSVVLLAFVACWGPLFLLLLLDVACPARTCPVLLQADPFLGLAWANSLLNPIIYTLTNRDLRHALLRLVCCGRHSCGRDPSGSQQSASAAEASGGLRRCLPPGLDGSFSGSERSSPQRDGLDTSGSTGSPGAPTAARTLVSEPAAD

human S1P5 K24A mutant = human S1P5 K24A mutant (Homo sapiens, UniProt Q9H228, K24A); assay: BRET-based cAMP Gi signaling assay, S1P5 K24A; settings: inverse agonism
Sequence of human S1P5 K24A mutant (Q9H228 whole entry K24A): as the sequence (Q9H228 whole entry M296W) above, with K24A, W296M counted along it

human S1P5 E112Q mutant = human S1P5 E112Q mutant (Homo sapiens, UniProt Q9H228, E112Q); assay: BRET-based cAMP Gi signaling assay, S1P5 E112Q; settings: inverse agonism
Sequence of human S1P5 E112Q mutant (Q9H228 whole entry E112Q): as the sequence (Q9H228 whole entry M296W) above, with E112Q, W296M counted along it

human S1P5 Y19F mutant = human S1P5 Y19F mutant (Homo sapiens, UniProt Q9H228, Y19F); assay: BRET-based cAMP Gi signaling assay, S1P5 Y19F; settings: for BRET ratio, Supplementary Figure 6b: replicate values, listed as ONO
Sequence of human S1P5 Y19F mutant (Q9H228 whole entry Y19F): as the sequence (Q9H228 whole entry M296W) above, with Y19F, W296M counted along it

human WT S1P5 receptor = human WT S1P5 receptor (Homo sapiens, UniProt Q9H228); assay: BRET-based cAMP (EPAC biosensor) Gi signaling assay, WT S1P5; settings: for BRET signal, raw replicate readings: WT, listed as ONO; for EC50: inverse agonism
Sequence of human WT S1P5 receptor (Q9H228 whole entry): as the sequence (Q9H228 whole entry M296W) above, with W296M counted along it

human S1P5 G293A mutant = human S1P5 G293A mutant (Homo sapiens, UniProt Q9H228, G293A); assay: BRET-based cAMP Gi signaling assay, S1P5 G293A; settings: inverse agonism
Sequence of human S1P5 G293A mutant (Q9H228 whole entry G293A): as the sequence (Q9H228 whole entry M296W) above, with G293A, W296M counted along it

human S1P5 Y89W mutant = human S1P5 Y89W mutant (Homo sapiens, UniProt Q9H228, Y89W); assay: BRET-based cAMP Gi signaling assay, S1P5 Y89W; settings: inverse agonism
Sequence of human S1P5 Y89W mutant (Q9H228 whole entry Y89W): as the sequence (Q9H228 whole entry M296W) above, with Y89W, W296M counted along it

human S1P5 V115A mutant = human S1P5 V115A mutant (Homo sapiens, UniProt Q9H228, V115A); assay: BRET-based cAMP Gi signaling assay, S1P5 V115A; settings: inverse agonism
Sequence of human S1P5 V115A mutant (Q9H228 whole entry V115A): as the sequence (Q9H228 whole entry M296W) above, with V115A, W296M counted along it

[1] = inverse agonism, Figure 2c source data, N/R = no response
[2] = inverse agonism, n=3, N/R = no response
[3] = Figure 2c source data, N/R = no response

O=C(O)CCCN1CCc2cccc(OCCc3cccc4ccccc34)c2CC1 [ONO-5430608, 4-{6-[2-(1-naphthyl)ethoxy]-1,2,4,5-tetrahydro-3H-3-benzazepin-3-yl} butanoic acid]
BRET ratio, single replicate readings (Supplementary Figure 6h) (human S1P5 M296W mutant; [ONO] 123.457 nM): 0.7416 and 0.7628 and 0.7677 and 0.7662 and 0.759 and 0.753 and 0.7663 and 0.7668 and 0.7626 | BRET ratio, single replicate readings (Supplementary Figure 6h) (human S1P5 M296W mutant; [ONO] 370.37 nM): 0.7572 and 0.757 and 0.7547 and 0.7694 and 0.7517 and 0.7654 and 0.7672 and 0.761 and 0.7564 | BRET ratio, single replicate readings (Supplementary Figure 6h) (human S1P5 M296W mutant; [ONO] 1111.11 nM): 0.7578 and 0.7573 and 0.7667 and 0.7569 and 0.7627 and 0.7676 and 0.756 and 0.7697 and 0.7628 | BRET ratio, single replicate readings (Supplementary Figure 6h) (human S1P5 M296W mutant; [ONO] 3333.33 nM): 0.7629 and 0.7592 and 0.7535 and 0.7543 and 0.758 and 0.7671 and 0.744 and 0.7683 and 0.7586 | ONO-5430608 pEC50, single experiments #1-#3 (human S1P5 M296W mutant; [1]): N/R | ONO, pEC50, M (human S1P5 M296W mutant; [2]): N/R | ONO-5430608 pEC50, single experiments #1-#3 (human S1P5 K24A mutant; [3]): N/R | ONO, pEC50, M (human S1P5 K24A mutant; n=3, N/R = no response): N/R | ONO-5430608 pEC50, single experiments #1-#3 (human S1P5 E112Q mutant; [3]): N/R | ONO, pEC50, M (human S1P5 E112Q mutant; n=3, N/R = no response): N/R | BRET ratio, Supplementary Figure 6b (human S1P5 Y19F mutant; [ONO] 0.169351 nM): 0.7728 and 0.7856 and 0.7903 and 0.7898 and 0.7857 and 0.7721 and 0.7815 and 0.7858 and 0.7955 | BRET ratio, Supplementary Figure 6b (human S1P5 Y19F mutant; [ONO] 0.508053 nM): 0.7709 and 0.7829 and 0.7789 and 0.7882 and 0.7908 and 0.7857 and 0.7787 and 0.7826 and 0.7773 | BRET ratio, Supplementary Figure 6b (human S1P5 Y19F mutant; [ONO] 1.52416 nM): 0.7699 and 0.7813 and 0.7753 and 0.786 and 0.7843 and 0.7814 and 0.7777 and 0.78 and 0.7821 | BRET ratio, Supplementary Figure 6b (human S1P5 Y19F mutant; [ONO] 4.57247 nM): 0.7759 and 0.7968 and 0.7779 and 0.7827 and 0.7847 (2×) and 0.7768 and 0.7813 and 0.7893 | BRET ratio, Supplementary Figure 6b (human S1P5 Y19F mutant; [ONO] 13.7174 nM): 0.7824 (2×) and 0.7736 and 0.7864 and 0.7844 and 0.776 and 0.7899 and 0.7904 and 0.7943 | ONO-5430608 pEC50, single experiments #1-#3 (human S1P5 Y19F mutant; [1]): N/R | ONO, pEC50, M (human S1P5 Y19F mutant; [2]): N/R | BRET signal, raw replicate readings (human WT S1P5 receptor; ONO 0.169351 nM, Suppl. Fig. 6f): 0.7609 and 0.7595 and 0.7587 and 0.7654 and 0.7615 and 0.7604 (2×) and 0.7628 and 0.7565 | BRET signal, raw replicate readings (human WT S1P5 receptor; ONO 0.508053 nM, Suppl. Fig. 6f): 0.753 and 0.7592 and 0.758 and 0.7626 and 0.762 and 0.759 and 0.761 and 0.7561 and 0.756 | BRET signal, raw replicate readings (human WT S1P5 receptor; ONO 1.52416 nM, Suppl. Fig. 6f): 0.748 and 0.7474 and 0.7478 (2×) and 0.7504 and 0.7525 and 0.7488 and 0.7446 and 0.7482 | BRET signal, raw replicate readings (human WT S1P5 receptor; ONO 4.57247 nM, Suppl. Fig. 6f): 0.7341 and 0.7354 and 0.7359 and 0.7386 and 0.7387 and 0.7347 and 0.7361 and 0.7362 and 0.7324 | BRET signal, raw replicate readings (human WT S1P5 receptor; ONO 13.7174 nM, Suppl. Fig. 6f): 0.7302 and 0.7285 and 0.7222 and 0.7325 and 0.7293 and 0.7332 and 0.7263 and 0.7276 and 0.7242 | BRET signal, raw replicate readings (human WT S1P5 receptor; ONO 41.1523 nM, Suppl. Fig. 6f): 0.7214 and 0.7273 and 0.7219 and 0.7256 and 0.7267 and 0.7266 and 0.7211 and 0.723 and 0.7239 | BRET signal, raw replicate readings (human WT S1P5 receptor; ONO 123.457 nM, Suppl. Fig. 6f): 0.7206 | BRET signal, raw replicate readings (human WT S1P5 receptor; ONO 370.37 nM, Suppl. Fig. 6f): 0.7228 and 0.7223 and 0.7157 and 0.7233 and 0.7238 and 0.7187 and 0.7181 (2×) and 0.7189 | BRET signal, raw replicate readings (human WT S1P5 receptor; ONO 1111.11 nM, Suppl. Fig. 6f): 0.7185 and 0.7195 and 0.7179 and 0.7229 and 0.7236 and 0.7207 and 0.7165 and 0.7204 and 0.7176 | BRET signal, raw replicate readings (human WT S1P5 receptor; ONO 3333.33 nM, Suppl. Fig. 6f): 0.719 and 0.7164 and 0.7226 and 0.7203 and 0.722 and 0.7221 and 0.7173 and 0.7187 and 0.715 | BRET signal, raw replicate readings (human WT S1P5 receptor; ONO 10000 nM, Suppl. Fig. 6f): 0.7216 and 0.7166 and 0.7165 and 0.7146 and 0.719 and 0.7226 and 0.7176 and 0.7153 and 0.7185 | BRET signal, raw replicate readings (human WT S1P5 receptor; ONO 10000 nM, Suppl. Fig. 6d): 0.7216 and 0.7166 and 0.7165 and 0.7146 and 0.719 and 0.7226 and 0.7176 and 0.7153 and 0.7185 | EC50 (human WT S1P5 receptor; ONO, pEC50, M, WT S1P5, mean ± SD, n=3): 1.7 nM | EC50 (human WT S1P5 receptor; ONO-5430608 pEC50, single experiments #1-#3, WT S1P5, Figure 2c source data): 1.35 nM and 2 nM and 1.8 nM | mode of action on Gi-protein-mediated signaling (basal activity level) (human WT S1P5 receptor; WT S1P5, BRET-based cAMP sensor): inverse agonist | EC50 (human S1P5 G293A mutant; ONO, pEC50, M, G293A, mean ± SD, n=3): 4.57 nM | EC50 (human S1P5 G293A mutant; ONO-5430608 pEC50, single experiments #1-#3, G293A, Figure 2c source data): 5.11 nM and 4.57 nM and 4.12 nM | EC50 (human S1P5 Y89W mutant; ONO, pEC50, M, Y89W, mean ± SD, n=3): 2.95 nM | EC50 (human S1P5 Y89W mutant; ONO-5430608 pEC50, single experiments #1-#3, Y89W, Figure 2c source data): 3.01 nM and 1.99 nM and 4.31 nM | EC50 (human S1P5 V115A mutant; ONO, pEC50, M, V115A, mean ± SD, n=3): 29.5 nM | EC50 (human S1P5 V115A mutant; ONO-5430608 pEC50, single experiments #1-#3, V115A, Figure 2c source data): 30.6 nM and 24.8 nM and 34.5 nM
